Legend:
Assay type in all cases: cell-based
human skeletal myotubes = assay: Triglyceride accumulation in oleate-loaded human skeletal myotubes; conditions: Myotube, 100 μM oleate 24 hours, read-out: EC50, inhibition of TAG accumulation
Method: Human skeletal myotubes were differentiated for 8 days. On day 7, 100 μM of oleic acid complexed to fatty acid-free BSA was added to the cells with the indicated concentration of test compound for 24 hours. Following incubation with oleate and compound, cells were formaldehyde fixed and stained with AdipoRed™ (Lonza). Triglyceride accumulation was measured using signal intensity at excitation 540/emission 590 nm (Bio-Tek Instruments, Inc.). Dose response curves were generated in Prism 6 (GraphPad Software). EC50 values were calculated using non-linear regression analysis. For biochemical measurement of triglyceride, human skeletal myotubes were incubated with oleate-BSA and test compound as described above. After 24 hour incubation, cells were collected with a lysis buffer containing 0.1% IGEPAL CA-630 (Sigma-Aldrich) in PBS. The harvested cells were sonicated for 5 seconds and then centrifuged at 10,000×g for 10 minutes at 4° C. The supernatant was removed and stored on ice. TAG levels were quantified using Infinity™ Triglycerides Liquid Stable Reagent (Thermo Scientific), following the manufacturer's instructions for colorimetric assay.
Student's t-test, Mann Whitney test, one-way ANOVA with Bonferroni post hoc test, or two-way ANOVA with Tukey post hoc test was performed to determine statistical significance as indicated. […]

rat H9c2 myocytes = assay: Inhibition of TAG accumulation in rat H9c2 myocytes; conditions: data not shown
MondoA [1] = target: T1, MondoA (Homo sapiens, UniProt Q9HAP2); assay: ChIP of MondoA occupation on TXNIP and ARRDC4 promoter ChoREs; conditions: human skeletal myotubes
T1 construct: Proteins were immunoprecipitated by using anti-MondoA (Bethyl Laboratories; catalog number A303-195A); endogenous in cells; host or cells: differentiated primary human skeletal myotubes
Method: ChIP assays were performed as previously described (Gan, et al., Genes Dev., 2011, 25(24):2619-2630). Briefly, differentiated human skeletal myotubes were cross-linked with 1% formaldehyde for 10 minutes at room temperature, and glycine was added to stop the cross-linking reaction. Cells were harvested and lysed. For chromatin fragmentation, sonication was performed using a Bioruptor (Diagenode). Proteins were immunoprecipitated by using anti-MondoA (Bethyl Laboratories; catalog number A303-195A) or IgG control (Sigma; catalog number 15006) overnight at 4° C. DNA fragments were purified using a QIAquick PCR purification kit (Qiagen) and quantified by a LightCycler® 480 Instrument II (Roche) with the specific primers listed in Table 1.
T1 sequence (Q9HAP2 2-919 limits assumed): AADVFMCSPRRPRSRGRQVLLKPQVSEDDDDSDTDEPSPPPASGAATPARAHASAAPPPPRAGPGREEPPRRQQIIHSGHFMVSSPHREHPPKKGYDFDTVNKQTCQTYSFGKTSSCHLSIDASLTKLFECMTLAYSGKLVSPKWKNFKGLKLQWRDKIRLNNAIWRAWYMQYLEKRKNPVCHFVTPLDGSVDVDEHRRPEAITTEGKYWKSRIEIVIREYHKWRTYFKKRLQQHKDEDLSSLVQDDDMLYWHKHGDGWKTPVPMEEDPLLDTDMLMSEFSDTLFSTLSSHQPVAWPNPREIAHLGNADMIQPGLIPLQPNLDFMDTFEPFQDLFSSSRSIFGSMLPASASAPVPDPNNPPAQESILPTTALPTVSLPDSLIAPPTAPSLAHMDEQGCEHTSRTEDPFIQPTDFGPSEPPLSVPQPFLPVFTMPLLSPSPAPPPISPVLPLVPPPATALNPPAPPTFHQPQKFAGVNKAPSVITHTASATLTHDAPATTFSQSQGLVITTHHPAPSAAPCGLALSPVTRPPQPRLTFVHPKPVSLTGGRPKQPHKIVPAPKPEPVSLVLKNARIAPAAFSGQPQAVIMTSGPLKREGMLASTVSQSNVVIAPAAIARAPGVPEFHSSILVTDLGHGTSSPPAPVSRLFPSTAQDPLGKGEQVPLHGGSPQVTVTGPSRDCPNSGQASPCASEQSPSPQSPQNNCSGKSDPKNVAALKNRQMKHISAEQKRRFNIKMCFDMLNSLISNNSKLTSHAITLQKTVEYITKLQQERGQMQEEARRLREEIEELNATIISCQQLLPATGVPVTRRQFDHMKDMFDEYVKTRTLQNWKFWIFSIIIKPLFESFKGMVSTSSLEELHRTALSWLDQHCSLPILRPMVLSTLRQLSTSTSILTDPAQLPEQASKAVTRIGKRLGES

[2] = test system: primary murine skeletal myocytes; assay: TAG accumulation in primary murine skeletal myocytes; conditions: Mus musculus; primary murine skeletal myocytes; read-out: Activity Score (IC50), triacylglyceride (TAG) accumulation
ARRDC4 = ARRDC4 expression by quantitative RT-PCR in human myotubes; conditions: 24 hours
Method: FIGS. 4A-C show downregulation of TXNIP and ARRDC4 expression by SBI-477. (FIG. 4A) TXNIP and ARRDC4 mRNA levels as determined by quantitative RT-PCR in human myotubes treated with SBI-477 (10 μM) or DGAT1 inhibitor (DGATi, […]) for 24 hours in the absence or presence of 100 μM oleate (n=4). Expression is shown relative to vehicle/BSA treatment. (FIG. 4B) TXNIP gene expression following exposure to a dose range of SBI-477 for 24 hours (n=4). (FIG. 4C) Left, Effect of SBI-477 on TXNIP protein levels as determined by western blot analysis by SBI-477. Right, Quantitation of the TXNIP western blot data is shown (n=5). *p<0.05 vs. Vehicle/BSA control, †p<0.05 vs. Vehicle/oleate by one-way ANOVA with Bonferroni post hoc test. The data are shown as mean±SD.
Total RNA was isolated using RNeasy Mini Kit (Qiagen) according to the manufacturer's instructions. cDNA was synthesized using the Affinity Script cDNA Synthesis Kit (Stratagene) with 0.5 μg of total RNA. PCR reactions were performed in triplicate […] Roche LightCycler® 480 Instrument II) with specific primers for each gene.

primary human myotubes = assay: Fatty acid uptake (3H-oleate); conditions: 10 μM, 24 hours
Method: FIGS. 1A-1C show SBI-477 as a small molecule inhibitor of neutral lipid accumulation in human skeletal myotubes. […] Data is shown as percent of DMSO vehicle control. Representative of >5 experiments. FIGS. 1B and 1C show dose-dependent inhibition of myocyte TAG accumulation by SBI-477. FIG. 1B—primary human myotubes were incubated with the indicated concentrations of SBI-477, 1 μM triascin C, 1 μM A922500 (DGAT inhibitor) or vehicle control with 100 μM oleate for 24 hours. Fatty acid free bovine serum albumin (BSA) was included as non-lipid loading control. Bars represent mean triglyceride level normalized to total protein±SD. *p<0.001 vs. oleate/vehicle control by one-way ANOVA with Bonferroni post hoc test. FIG. 1C—primary human myotubes were incubated with 10 μM SBI-477 or vehicle control for 24 hours. Fatty acid (FA) uptake was measured as cellular uptake of 3H-oleate. Bars represent fatty acid uptake normalized to the vehicle control. FIGS. 1D-1F show the effect of SBI-477 on FAO rates in human skeletal myotubes. […] FAO rates were determined by 3H-palmitate oxidation (n=5). […] Total cellular triglyceride levels were determined following incubation with SBI-477 (10 μM) for 24 hours with etomoxir (50 μM) in the absence (FIG. 1E) or presence of 1 mM carnitine (FIG. 1F) (n=4). *p<0.05 vs. vehicle control.

MondoA [3] = target: T2, MondoA (Homo sapiens, UniProt Q9HAP2); assay: Intracellular localization of MondoA (immunolocalization); conditions: human skeletal myoblasts; data not shown
T2 construct: endogenous in cells; host or cells: human skeletal myoblasts
Method: The activity of ChREBP and MondoA is governed, in part, by nuclear-cytoplasmic shuttling mechanisms that are incompletely understood but likely involve glucose metabolites and phosphorylation (Stoltzman, et al., Proc Natl Acad Sci USA. 2008; 105(19):6912-6917; Filhoulaud, et al., Trends Endocrinol Metab. 2013; 24(5):257-268). Accordingly, the effect of SBI-477 on intracellular localization of MondoA was assessed. […] The results of immunoblotting studies conducted with fractionated cellular extracts further supported this conclusion (FIG. 5D).
T2 sequence (Q9HAP2 whole entry): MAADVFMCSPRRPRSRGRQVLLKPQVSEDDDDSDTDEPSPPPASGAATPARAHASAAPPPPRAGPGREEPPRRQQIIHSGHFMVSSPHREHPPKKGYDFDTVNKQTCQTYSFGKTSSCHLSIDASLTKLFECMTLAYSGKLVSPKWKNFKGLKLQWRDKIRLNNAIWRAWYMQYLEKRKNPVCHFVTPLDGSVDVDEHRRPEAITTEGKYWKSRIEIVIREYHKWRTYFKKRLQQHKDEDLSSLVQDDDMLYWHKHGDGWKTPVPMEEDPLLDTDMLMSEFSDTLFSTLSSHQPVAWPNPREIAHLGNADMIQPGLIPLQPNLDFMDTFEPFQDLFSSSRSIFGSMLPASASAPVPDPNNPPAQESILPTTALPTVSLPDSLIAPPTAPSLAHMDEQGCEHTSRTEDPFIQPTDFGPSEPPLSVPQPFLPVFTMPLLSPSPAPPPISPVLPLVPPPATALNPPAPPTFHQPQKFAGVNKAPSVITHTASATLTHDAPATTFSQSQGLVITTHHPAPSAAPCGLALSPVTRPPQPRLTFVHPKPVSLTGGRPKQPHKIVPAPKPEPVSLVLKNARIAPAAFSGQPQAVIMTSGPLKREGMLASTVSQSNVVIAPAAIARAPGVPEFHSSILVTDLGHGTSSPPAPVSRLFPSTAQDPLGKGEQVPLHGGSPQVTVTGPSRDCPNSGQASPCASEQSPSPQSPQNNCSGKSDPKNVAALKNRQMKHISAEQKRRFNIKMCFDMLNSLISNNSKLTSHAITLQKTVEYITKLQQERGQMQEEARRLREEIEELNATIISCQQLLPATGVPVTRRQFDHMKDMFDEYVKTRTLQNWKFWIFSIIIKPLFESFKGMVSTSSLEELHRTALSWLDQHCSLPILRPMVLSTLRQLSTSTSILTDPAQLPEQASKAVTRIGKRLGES

Compound: COc1ccc(-c2csc(NC(=O)c3ccc(OCC(=O)N4CCOCC4)c(OC)c3)n2)cc1 [Cpd. 7, 3-methoxy-N-(4-(4-methoxyphenyl)thiazol-2-yl)-4-(2-morpholino-2-oxoethoxy)benzamide]
- EC50 (human skeletal myotubes): ~1000 nM
- EC50 (rat H9c2 myocytes): ~100 nM
- Occupation by MondoA of ChoREs in TXNIP and ARRDC4 promoter regions (MondoA [1]): inhibited
- IC50 [2]: < 1000 nM
- ARRDC4 expression (ARRDC4): robust, dose-dependent downregulation
- Cellular fatty acid uptake (primary human myotubes): not due to blocking cellular fatty acid uptake
- Nuclear localization of MondoA (MondoA [3]): near complete nuclear exclusion of MondoA

Source: patent US11028061B2, “Modulators of myocyte lipid accumulation and insulin resistance and methods of use thereof” (Sanford Burnham Prebys Medical Discovery Institute, priority 2015, dated 2021)
